The text below walks through data of patent US20100129800A1, “POLYMERS AND THEIR USE AS FLUORESCENT LABELS” (priority 2007, published 2010).

The nature of the first data set: Fluorescence properties of the new compounds (excitation and emission wavelengths). The format is physicochemical.
Conditions: not given
Consider `CC(O)C(COP(=O)(O)OC(C)C(CO)NC(=O)c1cc(-c2ccccc2)nc2ccccc12)NC(=O)c1c2ccccc2nc2c1[nH]c1ccccc12` (centres unmarked) [Example 37, O-{2-N-(2-phenylquinoline-4-carbamoyl-1-hydroxybutan-3-yl)} and O-(2-N-{10H-indolo[3,2-d]quinoline-11-carbamoyl}-3-hydroxybut-1-yl)], for which the “Fluorescence Excitation (nm)” value is listed as 342 nm and the “Fluorescence emission (nm)” value came out at 492 nm.

The same data set, now with this note: free compound.
Regarding `CC(=O)NCCN(CC(=O)NCCN(CC(=O)NCCCCCCO)C(=O)CNC(=O)c1c2ccccc2nc2ccccc12)C(=O)CNC(=O)c1c2ccccc2nc2ccccc12` [Example 46], the “Fluorescence Excitation (nm)” value is 248 nm and the “Fluorescence emission (nm)” value is recorded as 441 nm. For `OC[C@H](O)CNc1c2ccccc2nc2ccccc12` [Compound 5a, (R)-3-(Acridin-9-ylamino)propane-1,2-diol], the “Fluorescence Excitation (nm)” value is 433 nm. In the case of `CC(O)C(COP(=O)(O)OC(C)C(CO)NC(=O)c1cc(-c2ccccc2)nc2ccccc12)NC(=O)c1cc(-c2ccccc2)nc2ccccc12` (centres unmarked) [Example 35, O-{2-N-(2-phenylquinoline-4-carbamoyl-1-hydroxybutan-3-yl)} and O-{2-N-(2-phenylquinoline-4-carbamoyl-3-hydroxybutan-1-yl)} phosphate], the “Fluorescence Excitation (nm)” value turned out to be 330 nm and the “Fluorescence emission (nm)” value is given as 395 nm. The corresponding values for `CC(OP(=O)(O)OCC(O)CNc1c2nc3ccccc3c-2n(C)c2ccccc12)C(CO)NC(=O)c1c2ccccc2nc2c1[nH]c1ccccc12` [Example 41, O-{2-N-(10H-indolo[3,2-d]quinoline-11-carbamoyl)-3-oxybut-1-yl} phosphate (3-1) O-{3-(5-methyl-5H-indolo[3,2-b]quinolin-11-ylamino-(S)-(2hydroxylprop-3-yl)] are 275 nm and 476 nm. On the same counts, the results for `CC(O)C(COP(=O)(O)OC(C)C(COP(=O)(O)OC(C)C(CO)NC(=O)c1c2ccccc2nc2ccccc12)NC(=O)c1c2ccccc2nc2ccccc12)NC(=O)c1c2ccccc2nc2ccccc12` (centres unmarked) [Example 43, O-{2-N-(Acridine-9-carbamoyl)-(1-hydroxybut-3-yl)} phosphate (3-1) O-{2-N-(acridine-9-carbamoyl)-(1-hydroxybut-3-yl)} phosphate (3-1) O-{2-N-(acridine-9-carbamoyl)-(3-hydroxybut-1-yl)}] are 360 nm and 440 nm.

For the compound `CC(O)C(COP(=O)(O)OC(C)C(COP(=O)(O)OC(C)C(CO)NC(=O)c1c2ccccc2nc2ccccc12)NC(=O)c1c2ccccc2nc2c1[nH]c1ccccc12)NC(=O)Cn1c2nc3ccccc3c-2cc2ccccc21` (centres unmarked) [Example 45, O-{2-N-(Acridine-9-carbamoyl)-(1-hydroxybut-3-yl)} phosphate (3-1) O-{2-N-(10H-indolo[3,2-d]quinoline-11-carbamoyl)-3-oxybut-1-yl} phosphate (3-1) O-{2-N-(5H-indolo[2,3-b]quinolin-5-yl)acetamido-3-hydroxybut-1-yl)], the “Fluorescence Excitation (nm)” value was 271 nm and the “Fluorescence emission (nm)” value amounted to 449 nm. On to `CC(=O)N[C@@H](CCCNC(=O)CNC(=O)c1c2ccccc2nc2ccccc12)C(=O)N[C@@H](CCCNC(=O)CNC(=O)c1c2ccccc2nc2c1[nH]c1ccccc12)C(=O)N[C@@H](CCCNC(=O)CNC(=O)c1c2ccccc2nc2ccccc12)C(N)=O` [Example 69, N^4-Acetyl-5-N-{2-(acridine-9-carboxamide)acetyl}ornithinyl-5-N-{2-(10H-indolo[3,2-b]quinoline-11-carboxamide)acetyl}ornithinyl-5-N-{2-(acridine-9-carboxamide)acetyl}ornithinamide], for which the “Fluorescence Excitation (nm)” value is listed as 357 nm and the “Fluorescence emission (nm)” value is given as 441 nm. The corresponding values for `CC(=O)NC1CC(C(N)=O)N(C(=O)CNC(=O)c2c3ccccc3nc3c2[nH]c2ccccc23)C1` (centres unmarked) [Example 51, N-{2-(10H-indolo[3,2-b]quinoline-11-carboxamide)acetyl}-4-N-acetamidoprolinamide] are 347 nm and 502 nm. On the same counts, the results for `CC(=O)NC1CC(C(=O)NC2CC(C(=O)NC3CC(C(=O)NC4CC(C(=O)NC5CC(C(N)=O)N(C(=O)CNC(=O)c6c7ccccc7nc7c6[nH]c6ccccc67)C5)N(C(C)=O)C4)N(C(=O)CNC(=O)c4cc(-c5ccccc5)nc5ccccc45)C3)N(C(C)=O)C2)N(C(=O)CNC(=O)c2c3ccccc3nc3ccccc23)C1` (centres unmarked) [Example 65, N^4-Acetyl-4-amino-{2-(acridine-9-carboxamide)acetyl}prolinyl-4-aminoprolinyl-4-amino-[(2-phenyl-quinoline-4-carboxamide)acetyl]prolinamide-4-aminoprolinyl-4-amino-{2-(10H-indolo[3,2-b]quinoline-11-carboxamide)acetyl}prolinamide] are 249 nm and 442 nm. Consider `CC(=O)NC1CC(C(=O)NC2CC(C(=O)NC3CC(C(N)=O)N(C(=O)CNC(=O)c4c5ccccc5nc5c4[nH]c4ccccc45)C3)N(C(=O)CNC(=O)c3c4ccccc4nc4c3[nH]c3ccccc34)C2)N(C(=O)CNC(=O)c2c3ccccc3nc3c2[nH]c2ccccc23)C1` (centres unmarked) [Example 57, N^4-Acetyl-4-amino-{2-(10H-indolo[3,2-b]quinoline-11-carboxamide)acetyl}prolinyl-4-amino-{2-(10H-indolo[3,2-b]quinoline-11-carboxamide)acetyl}prolinyl-{2-(10H-indolo[3,2-b]quinoline-11-carboxamide)acetyl}prolinamide], for which the “Fluorescence Excitation (nm)” value turned out to be 348 nm and the “Fluorescence emission (nm)” value is listed as 505 nm. As to `CC(O)C(COP(=O)(O)OC(C)C(CO)NC(=O)c1c2ccccc2nc2c1[nH]c1ccccc12)NC(=O)c1c2ccccc2nc2c1[nH]c1ccccc12` (centres unmarked) [Example 28, O-{2-N-(10H-indolo[3,2-d]quinoline-11-carbamoyl)-(1-hydroxybut-3-yl)} and O-(2-N-{10H-indolo[3,2-d]quinoline-11-carbamoyl}-3-hydroxybut-1-yl)phosphate], the “Fluorescence Excitation (nm)” value came out at 346 nm and the “Fluorescence emission (nm)” value is listed as 495 nm. `CC(=O)NCCN(CC(=O)NCCN(CC(=O)NCCN(CC(=O)NCCCCCCO)C(=O)CNC(=O)c1c2ccccc2nc2ccccc12)C(=O)CNC(=O)c1c2ccccc2nc2ccccc12)C(=O)CNC(=O)c1c2ccccc2nc2ccccc12` [Example 47]: the “Fluorescence Excitation (nm)” value came out at 360 nm and the “Fluorescence emission (nm)” value is reported as 436 nm.

`CC(=O)N[C@H]1C[C@@H](C(=O)N[C@H]2C[C@@H](C(=O)N[C@H]3C[C@@H](C(N)=O)N(C(=O)CNC(=O)c4c5ccccc5nc5ccccc45)C3)N(C(=O)CNC(=O)c3c4ccccc4nc4ccccc34)C2)N(C(=O)CNC(=O)c2c3ccccc3nc3c2[nH]c2ccccc23)C1` [Example 60, N^4-Acetyl-4-amino-{2-(10H-indolo[3,2-b]quinoline-11-carboxamide)acetyl}prolinyl-4-amino-{2-(acridine-9-carboxamide)acetyl}prolinyl-4-amino-{2-(acridine-9-carboxamide)acetyl}prolinamide]: the “Fluorescence Excitation (nm)” value is 309 nm and the “Fluorescence emission (nm)” value is given as 456 nm. On to `CC(OP(=O)(O)OCC(O)CNc1c2nc3ccccc3c-2n(C)c2ccccc12)C(CO)NC(=O)c1c2ccccc2nc2ccccc12` [Example 31, O-{2-N-(Acridine-9-carbamoyl)-(1-hydroxybut-3-yl)} and O-{3-(5-methyl-5H-indolo[3,2b]quinolin-11-ylamino-(S)-(2-hydroxyprop-3-yl} phosphate], for which the “Fluorescence Excitation (nm)” value is on record as 353 nm and the “Fluorescence emission (nm)” value was found to be 441 nm. On the same counts, the results for `C[C@@H](O)[C@H](CO)NC(=O)c1cc(-c2ccccc2)nc2ccccc12` [Compound 2e, N-((2S, 3R)-1,3-dihydroxybutan-2-yl)-2-phenylquinoline-4-carboxamide] are 326 nm and 377 nm. Regarding `CC(=O)N1CC(NC(=O)CNC(=O)c2c3ccccc3nc3c2[nH]c2ccccc23)C[C@H]1C(=O)N1CC(NC(=O)CNC(=O)c2c3ccccc3nc3c2[nH]c2ccccc23)C[C@H]1C(N)=O` (some centres unmarked) [Example 53, N^4-Acetyl-4-amino-{2-(10H-indolo[3,2-b]quinoline-11-carboxamide)acetyl}prolinyl-4-amino-{2-(10H-indolo[3,2-b]quinoline-11-carboxamide)acetyl}prolinamide], the “Fluorescence Excitation (nm)” value amounted to 348 nm. In the case of `CC(=O)NC1CC(C(=O)NC2CC(C(=O)NC3CC(C(N)=O)N(C(=O)CNC(=O)c4c5ccccc5nc5c4[nH]c4ccccc45)C3)N(C(=O)CNC(=O)c3c4ccccc4nc4ccccc34)C2)N(C(=O)CNC(=O)c2c3ccccc3nc3c2[nH]c2ccccc23)C1` (centres unmarked) [Example 61, N^4-Acetyl-4-amino-{2-(10H-indolo[3,2-b]quinoline-11-carboxamide)acetyl}prolinyl-4-amino-{2-(acridine-9-carboxamide)acetyl}prolinyl-4-amino-{2-(10H-indolo[3,2-b]quinoline-11-carboxamide)acetyl}prolinamide], the “Fluorescence Excitation (nm)” value is 348 nm and the “Fluorescence emission (nm)” value was 488 nm. Regarding `CC(=O)NC1CC(C(=O)NC2CC(C(N)=O)N(C(=O)CNC(=O)c3c4ccccc4nc4c3[nH]c3ccccc34)C2)N(C(=O)CNC(=O)c2c3ccccc3nc3ccccc23)C1` (centres unmarked) [Example 55, 10H-Indolo[3,2-b]quinoline-11-carboxylic acid (2-{4-[4(4-acetylamino-1-{2-[(acridine-9-carbonyl)-amino]-acetyl}-pyrrolidine-2-carbonyl)-amino]-2-carbamoyl-pyrrolidin-1-yl}-2-oxo-ethyl)-amide], the “Fluorescence Excitation (nm)” value is 308 nm and the “Fluorescence emission (nm)” value is recorded as 500 nm. On the same counts, the results for `C[C@@H](O)[C@H](CO)NC(=O)CN1c2ccccc2C=C2C3C=CC=CC3=NC21` (stereo partly drawn) [Compound 2f, N-((2S, 3R)-1,3-dihydroxybutan-2-yl)-(4a, 10a-dihydro-10,11-diazabenzo[b]fluoren-10-yl)acetamide] are 261 nm and 456 nm.
